These results are taken from patent US20100120858A1, “Piperidine Derivatives” (Pfizer Inc., priority 2006, published 2010).

For orientation: pKi means the Ki on a negative log10 scale, so that one unit is a factor of ten. Lower therefore signals a high Ki.

pKi: −log10 of the molar value. Counter-ions that a name gives are not always drawn.

The target in experiment [1] is human norepinephrine transporter (Homo sapiens, UniProt P23975). Kind of experiment: Human norepinephrine (hNET) receptor binding, [125I]-RTI-55. As to conditions: membranes of HEK-293 cells transfected with human norepinephrine transporter cDNA; 50 pM [125I]-RTI-55; IC50 converted by Cheng-Prusoff. On the procedure:
Cell pastes of human embryonic kidney 293 (HEK-293) cells transfected with a human norepinephrine transporter cDNA were prepared. The cell pastes were resuspended in 400 to 700 mL of Krebs-N-2-hydroxyethylpiperazine-N′-2-ethanesulfonic acid (HEPES) assay buffer (25 mM HEPES, 122 mM NaCl, 3 mM KCl, 1.2 mM MgSO4, 1.3 mM CaCl2, and 11 mM glucose, pH 7.4) with a Polytron homogenizer at setting 7 for 30 seconds. Aliquots of membranes (5 mg/mL protein) were stored in liquid nitrogen until used.
The binding assay was set up in Beckman deep-well polypropylene plates with a total volume of 250 μL containing: test compound (concentration of 10^−5M to 10^−12M), cell membranes, and 50 pM [^125I]-RTI-55 ([^125I]-3 beta-(4-iodophenyl)tropan-2 beta-carboxylic acid methyl ester) (Perkin Elmer, NEX-272; specific activity 2200 Ci/mmol). The reaction was incubated by gentle agitation for 90 minutes at room temperature and was terminated by filtration through Whatman GF/C filter plates using a Brandel 96-well plate harvester. Scintillation fluid (100 μL) was added to each well, and bound [^125I]-RTI-55 was determined using a Wallac Trilux Beta Plate Counter. Test compounds were run in duplicate, and specific binding was defined as the difference between binding in the presence and absence of 10 μM desipramine.
Excel and GraphPad Prism software were used for data calculation and analysis. IC50 values were converted to Ki values using the Cheng-Prusoff equation. The Ki values (nM) for the hNET are reported below in Table 13.

In experiment [2] the target is human serotonin transporter (Homo sapiens, UniProt P31645). Kind of experiment: Human serotonin (hSERT) receptor binding, [125I]-RTI-55. The following applies: membranes of HEK-293 cells transfected with human serotonin transporter cDNA, IC50 converted by Cheng-Prusoff. On the procedure:
Cell pastes of HEK-293 cells transfected with a human serotonin transporter cDNA were prepared. The cell pastes were resuspended in 400 to 700 ml of Krebs-HEPES assay buffer (25 mM HEPES, 122 mM NaCl, 3 mM KCl, 1.2 mM MgSO4, 1.3 mM CaCl2, and 11 mM glucose, pH 7.4) with a Polytron homogenizer at Setting 7 for 30 seconds. Aliquots of membranes (˜2.5 mg/mL protein) were stored in liquid nitrogen until used.
Assays were set up in FlashPlates pre-coated with 0.1% polyethyleneimine (PEI) in a total volume of 250 μL containing: test compound (concentration 10^−5M to 10^−12M), cell membranes, and […] [^125I]-RTI-55 (Perkin Elmer, NEX-272; specific activity 2200 Ci/mmol). The reaction was incubated and gently agitated for 90 minutes at room temperature, and terminated by removal of assay volume. Plates were covered, and bound [^125I]-RTI-55 was determined using a Wallac Trilux Beta Plate Counter. Test compounds were run in duplicate, and specific binding was defined as the difference between binding in the presence and absence of 10 μM citalopram.
Excel and GraphPad Prism software were used for data calculation and analysis. IC50 values were converted to Ki values using the Cheng-Prusoff equation.

Sequence of human norepinephrine transporter (P23975 whole entry): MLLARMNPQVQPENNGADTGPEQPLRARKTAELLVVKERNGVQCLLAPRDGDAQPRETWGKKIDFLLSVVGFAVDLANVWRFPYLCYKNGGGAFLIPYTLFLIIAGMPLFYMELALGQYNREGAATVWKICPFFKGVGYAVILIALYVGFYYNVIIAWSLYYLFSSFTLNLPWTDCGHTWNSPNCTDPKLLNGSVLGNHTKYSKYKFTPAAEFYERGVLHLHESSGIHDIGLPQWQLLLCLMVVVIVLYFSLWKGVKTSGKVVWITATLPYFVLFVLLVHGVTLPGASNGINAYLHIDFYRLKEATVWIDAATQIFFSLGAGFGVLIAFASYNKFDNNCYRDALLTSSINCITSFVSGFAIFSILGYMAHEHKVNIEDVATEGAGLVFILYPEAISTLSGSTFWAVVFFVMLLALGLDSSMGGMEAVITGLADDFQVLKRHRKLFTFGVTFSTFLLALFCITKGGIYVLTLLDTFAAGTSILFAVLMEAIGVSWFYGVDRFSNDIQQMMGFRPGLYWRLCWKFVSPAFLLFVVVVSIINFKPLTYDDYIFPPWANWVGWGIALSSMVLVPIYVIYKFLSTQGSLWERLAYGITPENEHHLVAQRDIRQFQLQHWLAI
Sequence of human serotonin transporter (P31645 whole entry): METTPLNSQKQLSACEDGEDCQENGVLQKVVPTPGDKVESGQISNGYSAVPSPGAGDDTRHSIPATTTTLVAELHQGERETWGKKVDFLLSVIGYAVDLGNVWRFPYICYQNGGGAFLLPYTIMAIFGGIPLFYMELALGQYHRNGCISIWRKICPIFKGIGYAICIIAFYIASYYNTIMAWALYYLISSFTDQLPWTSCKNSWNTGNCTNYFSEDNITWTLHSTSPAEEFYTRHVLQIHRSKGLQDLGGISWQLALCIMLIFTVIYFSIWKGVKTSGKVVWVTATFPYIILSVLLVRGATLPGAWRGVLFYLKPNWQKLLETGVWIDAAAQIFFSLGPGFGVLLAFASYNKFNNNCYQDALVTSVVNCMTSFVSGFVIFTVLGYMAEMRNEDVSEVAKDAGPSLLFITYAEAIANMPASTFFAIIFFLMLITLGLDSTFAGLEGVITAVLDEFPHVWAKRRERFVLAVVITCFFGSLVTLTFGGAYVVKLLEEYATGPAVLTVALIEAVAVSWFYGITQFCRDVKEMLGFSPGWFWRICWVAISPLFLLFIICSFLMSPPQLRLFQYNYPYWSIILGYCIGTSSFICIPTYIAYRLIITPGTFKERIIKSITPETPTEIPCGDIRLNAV

For the compound `Cc1ccc(Oc2ncccc2OC[C@H]2CCCNC2)cc1` [Example 52, (S)-2-(4-methyl-phenoxy)-3-(piperidin-3-ylmethoxy)-pyridine fumaric acid], the pKi in experiment [1] was 8.40; in experiment [2] it was 5.28.

For the compound `Cc1ccc(OC[C@H]2CCCNC2)c(Oc2ccc(Cl)cc2Cl)n1` [Example 22, (S)-2-(2,4-dichloro-phenoxy)-6-methyl-3-(piperidin-3-ylmethoxy)-pyridine fumaric acid], the pKi in experiment [1] is 8.33; in experiment [2] it was 7.10.

As to `COc1ccc(Oc2nc(C)ccc2OC[C@H]2CCCNC2)c(Cl)c1` [Example 26, (S)-2-(2-chloro-4-methoxy-phenoxy)-6-methyl-3-(piperidin-3-ylmethoxy)-pyridine fumaric acid], the values for the pKi in experiment [1] and in experiment [2] were 7.74 and 6.07, respectively.

With `Cc1ccc(OC[C@H]2CCCNC2)c(Oc2ccc(Cl)c(F)c2)n1` [Example 31, (S)-2-(4-chloro-3-fluoro-phenoxy)-6-methyl-3-(piperidin-3-ylmethoxy)-pyridine fumaric acid], the values for the pKi in experiment [1] and in experiment [2] were 8.08 and 7.00, respectively.

In the case of `Cc1ccc(OC[C@H]2CCCNC2)c(Oc2c(F)ccc(F)c2F)n1` [Example 49, (S)-6-methyl-3-(piperidin-3-ylmethoxy)-2-(2,3,6-trifluoro-phenoxy)-pyridine hydrochloride], the pKi in experiment [1] was 8.21; in experiment [2], 7.60.

For `CCOc1ncccc1O[C@@H](CC)[C@H]1CCCNC1` [Example 86, (S,S)-2-ethoxy-3-(1-piperidin-3-yl-propoxy)-pyridine fumaric acid], the pKi was 7.89 in experiment [1] and 6.15 in experiment [2].

For `Cc1ccc(OC[C@H]2CCCNC2)c(Oc2c(F)ccc(Cl)c2F)n1` [Example 50, (S)-2-(3-chloro-2,6-difluoro-phenoxy)-6-methyl-3-(piperidin-3-ylmethoxy)-pyridine hydrochloride], the pKi in experiment [1] is 8.26; in experiment [2], 7.22.

For the compound `Cc1ccc(OC[C@H]2CCCNC2)c(Oc2ccccc2C)n1` [Example 5, (S)-2-(2-methyl-phenoxy)-6-methyl-3-(piperidin-3-ylmethoxy)-pyridine fumaric acid], the pKi in experiment [1] is 8.08; in experiment [2] it was 5.55.

As to `Cc1ccc(OC[C@H]2CCCNC2)c(Oc2ccc(C(C)C)cc2)n1` [Example 20, (S)-2-[4-(1-methyl-ethyl)-phenoxy]-6-methyl-3-(piperidin-3-ylmethoxy)-pyridine fumaric acid], the results for the pKi in experiment [1] and in experiment [2] were 5.32 and 5.62, respectively.

Regarding `CC(C)CCOc1ccccc1O[C@@H](C)[C@H]1CCCNC1` [Example 112, (S)-3-{(S)-1-[2-(3-methyl-butoxy)-phenoxy]-ethyl}-piperidine oxalic acid], the pKi was 7.80 in experiment [1] and 6.10 in experiment [2].

In the case of `COCCOc1ccccc1O[C@@H](C)[C@H]1CCCNC1` [Example 113, (S)-3-{(S)-1-[2-(2-methoxy-ethoxy)-phenoxy]-ethyl}-piperidine hydrochloride], the pKi in experiment [1] was 7.77; in experiment [2], 5.44.

As to `COCCOc1ccccc1OC(C)(C)[C@H]1CCCNC1` [Example 118, (S)-3-{1-[2-(2-methoxy-ethoxy)-phenoxy]-1-methyl-ethyl}-piperidine fumaric acid], the pKi was 7.42 in experiment [1] and 5.60 in experiment [2].

For the compound `CCOc1ccccc1OC[C@H]1CCCNC1` [Example 100, (S)-3-(2-ethoxy-phenoxymethyl)-piperidine fumaric acid], the pKi in experiment [1] is 7.48; in experiment [2], 5.59.

As for `Fc1ccc(Oc2cccc(F)c2OC[C@H]2CCCNC2)cc1F` [Example 97, (S)-3-[2-(3,4-difluoro-phenoxy)-6-fluoro-phenoxymethyl]-piperidine fumaric acid], the pKi in experiment [1] is 9.00; in experiment [2], 6.16.

Turning to `Fc1ccc(Oc2ncccc2OC(c2ccccc2)C2CCCNC2)cc1` (single isomer, unassigned; stereoisomer b) [Example 89, 2-(4-fluoro-phenoxy)-3-[((R or S)-phenyl)-((S)-piperidin-3-yl)-methoxy]-pyridine fumaric acid, stereoisomer B], the results for the pKi in experiment [1] and in experiment [2] were 7.37 and 6.23, respectively.

As for `COc1cc(Cl)ccc1Oc1cc(Cl)ccc1OC[C@H]1CCCNC1` [Example 34, (S)-3-[4-chloro-2-(4-chloro-2-methoxy-phenoxy)-phenoxymethyl]-piperidine fumaric acid], the pKi in experiment [1] is 7.80; in experiment [2], 7.68.

Turning to `COc1cccc(F)c1OC[C@H]1CCCNC1` [Example 103, (S)-3-(2-fluoro-6-methoxy-phenoxymethyl)-piperidine fumaric acid], the pKi in experiment [1] is 7.35; in experiment [2], 5.92.

Consider `FC(F)(F)Oc1ccccc1O[C@@H](c1ccccn1)[C@H]1CCCNC1` [Example 116, 2-[(S)-piperidin-3-yl-{(R)-2-trifluoromethoxy-phenoxy}-methyl]-pyridine fumaric acid], for which the pKi in experiment [1] is 8.52; in experiment [2], 5.43.

In the case of `COc1cc(Cl)ccc1Oc1cc(C(F)(F)F)ccc1OC[C@H]1CCCNC1` [Example 35, (S)-3-[2-(4-chloro-2-methoxy-phenoxy)-4-trifluoromethyl-phenoxymethyl]-piperidine fumaric acid], the pKi in experiment [1] is 6.60; in experiment [2], 7.46.

Take `Cc1ccc(OC[C@H]2CCCNC2)c(Oc2cccc(C(F)(F)F)c2)n1` [Example 27, (S)-6-methyl-2-(3-trifluoromethy-phenoxy)-3-(piperidin-3-ylmethoxy)-pyridine fumaric acid]: the pKi in experiment [1] is 6.51; in experiment [2], 6.25.

Take `Cc1ccc(OC[C@H]2CCCNC2)c(Oc2ccc(Cl)c(Cl)c2)n1` [Example 17, (S)-2-(3,4-dichloro-phenoxy)-6-methyl-3-(piperidin-3-ylmethoxy)-pyridine fumaric acid]: the pKi in experiment [1] was 7.92; in experiment [2], 7.20.

Turning to `COc1ccc(Oc2nc(C)ccc2OC[C@H]2CCCNC2)c(F)c1` [Example 30, (S)-2-(2-fluoro-4-methoxy-phenoxy)-6-methyl-3-(piperidin-3-ylmethoxy)-pyridine fumaric acid], the pKi in experiment [1] was 7.82; in experiment [2] it was 6.64.

For the compound `N#Cc1ccc(Oc2ncccc2OC[C@H]2CCCNC2)cc1C#N` [Example 58, (S)-4-[3-(piperidin-3-ylmethoxy)-pyridin-2-yloxy]-phthalonitrile fumaric acid], the figures for the pKi in experiment [1] and in experiment [2] were 5.92 and 5.40, respectively.

Take `Clc1ccc(Oc2ncccc2OC[C@H]2CCCNC2)cc1` [Example 55, (S)-2-(4-chloro-phenoxy)-3-(piperidin-3-ylmethoxy)-pyridine fumaric acid]: the pKi was 7.77 in experiment [1] and less than 5.00 in experiment [2].

As for `CCOc1ccccc1OC(c1ccccc1)[C@H]1CCCNC1` (mixture of isomers) [Example 106, (S)-3-[(2-ethoxy-phenoxy)-(R,S)-phenyl-methyl]-piperidine fumaric acid], the values for the pKi in experiment [1] and in experiment [2] were 8.15 and 6.37, respectively.

`N#Cc1ccc(Oc2ncccc2OC[C@H]2CCCNC2)cc1` [Example 57, (S)-4-[3-(piperidin-3-ylmethoxy)-pyridin-2-yloxy]-benzonitrile fumaric acid]: the figures for the pKi in experiment [1] and in experiment [2] were 7.24 and less than 5.00, respectively.

`Fc1ccc(Oc2c(F)cccc2OC[C@H]2CCCNC2)c(Cl)c1` [Example 38, (S)-3-[2-(2-chloro-4-fluoro-phenoxy)-3-fluoro-phenoxymethyl]-piperidine fumaric acid]: the figures for the pKi in experiment [1] and in experiment [2] were 8.44 and 5.72, respectively.

As for `C[C@H](Oc1ccccc1OC1CCCCC1)[C@H]1CCCNC1` [Example 111, (S)-3-[(S)-1-(2-cyclohexyloxy-phenoxy)-ethyl]-piperidine oxalic acid], the pKi in experiment [1] is 8.30; in experiment [2], 5.74.

`Cc1ccc(OC[C@H]2CCCNC2)c(Oc2ccccc2Cl)n1` [Example 7, (S)-2-(2-chloro-phenoxy)-6-methyl-3-(piperidin-3-ylmethoxy)-pyridine fumaric acid]: the pKi is 8.57 in experiment [1] and 6.46 in experiment [2].
